Laboratory results reported in paper PMC5218480 (PLoS ONE, 2017).

Test system: MV-4-11 cells
Assay: Gene expression microarray analysis (Affymetrix PrimeView) and GSEA
Assay type: cell-based, human
Design: RFU PODN (11730768_x_at) / Fold change /veh PODN (11730768_x_at) / RFU LINC00158 (11744669_a_at) / Fold change /veh LINC00158 (11744669_a_at) / RFU DUSP10 (11751237_a_at) / Fold change /veh DUSP10 (11751237_a_at) / RFU ID3 (11757404_x_at) / Fold change /veh ID3 (11757404_x_at) / RFU PLEKHG5 (11737974_s_at) / Fold change /veh PLEKHG5 (11737974_s_at) / RFU LRRC4B (11730491_at) / Fold change /veh LRRC4B (11730491_at) / RFU GIMAP4 (11747438_a_at) / Fold change /veh GIMAP4 (11747438_a_at) / RFU KRT8 (11758183_x_at) / Fold change /veh KRT8 (11758183_x_at) / RFU CNN1 (11734310_a_at) / Fold change /veh CNN1 (11734310_a_at) / RFU VPS37D (11726825_at) / Fold change /veh VPS37D (11726825_at) / RFU C10orf10 (11716522_x_at) / Fold change /veh C10orf10 (11716522_x_at) / RFU KIR2DL2 /// KIR2DL4 /// KIR2DL5A /// KIR2DL5B /// KIR2DS1 /// KIR2DS2 /// KIR2DS3 /// KIR2DS4 /// KIR3DL3 /// KIR3DL3 /// KIR3DS1 (11738374_at) / Fold change /veh KIR2DL2 /// KIR2DL4 /// KIR2DL5A /// KIR2DL5B /// KIR2DS1 /// KIR2DS2 /// KIR2DS3 /// KIR2DS4 /// KIR3DL3 /// KIR3DL3 /// KIR3DS1 (11738374_at) / RFU C1QL1 (11718748_at) / Fold change /veh C1QL1 (11718748_at) / RFU TMPRSS4 (11747572_a_at) / Fold change /veh TMPRSS4 (11747572_a_at) / RFU HAMP (11756126_x_at) / Fold change /veh HAMP (11756126_x_at) / RFU RNFT2 (11725882_a_at) / Fold change /veh RNFT2 (11725882_a_at) / RFU NR4A2 (11747474_a_at) / Fold change /veh NR4A2 (11747474_a_at) / RFU ABCC12 (11746883_a_at) / Fold change /veh ABCC12 (11746883_a_at) / RFU TMEM136 (11760407_x_at) / Fold change /veh TMEM136 (11760407_x_at) / RFU CLDN22 /// WWC2 (11732394_at) / Fold change /veh CLDN22 /// WWC2 (11732394_at) / RFU HLA-DPB1 (11760878_x_at) / Fold change /veh HLA-DPB1 (11760878_x_at) / RFU SPINT1 (11716480_a_at) / Fold change /veh SPINT1 (11716480_a_at) / RFU GAP43 (11754022_s_at) / Fold change /veh GAP43 (11754022_s_at) / RFU A4GNT (11735810_at) / Fold change /veh A4GNT (11735810_at) / RFU PRB3 (11715151_x_at) / Fold change /veh PRB3 (11715151_x_at) / RFU TUBB4B (11761932_at) / Fold change /veh TUBB4B (11761932_at) / RFU CAPN14 (11732068_a_at) / Fold change /veh CAPN14 (11732068_a_at) / RFU TMCC2 (11721928_a_at) / Fold change /veh TMCC2 (11721928_a_at) / RFU IRGQ (11745062_a_at) / Fold change /veh IRGQ (11745062_a_at) / RFU FAM174B (11720279_a_at) / Fold change /veh FAM174B (11720279_a_at) / RFU TMPRSS4 (11748680_a_at) / Fold change /veh TMPRSS4 (11748680_a_at) / RFU FAM212B (11763350_a_at) / Fold change /veh FAM212B (11763350_a_at) / RFU PLEKHG5 (11743358_a_at) / Fold change /veh PLEKHG5 (11743358_a_at) / RFU ZSCAN30 (11745921_a_at) / Fold change /veh ZSCAN30 (11745921_a_at) / RFU CMKLR1 (11741424_a_at) / Fold change /veh CMKLR1 (11741424_a_at) / RFU LOC101060620 /// MAPK8IP1 (11723275_at) / Fold change /veh LOC101060620 /// MAPK8IP1 (11723275_at) / RFU SPTSSB (11747773_x_at) / Fold change /veh SPTSSB (11747773_x_at) / RFU PRSS12 (11739890_at) / Fold change /veh PRSS12 (11739890_at) / RFU BIN1 (11741810_x_at) / Fold change /veh BIN1 (11741810_x_at) / RFU WNT11 (11732464_a_at) / Fold change /veh WNT11 (11732464_a_at) / RFU C10orf10 (11716521_a_at) / Fold change /veh C10orf10 (11716521_a_at) / RFU C5orf56 (11738089_at) / Fold change /veh C5orf56 (11738089_at) / RFU CYB561 (11721691_x_at) / Fold change /veh CYB561 (11721691_x_at) / RFU ANKRD19P (11752326_a_at) / Fold change /veh ANKRD19P (11752326_a_at) / RFU OR2T12 /// OR2T33 /// OR2T8 (11738714_s_at) / Fold change /veh OR2T12 /// OR2T33 /// OR2T8 (11738714_s_at) / RFU VCAN (11748164_a_at) / Fold change /veh VCAN (11748164_a_at) / RFU JSRP1 (11732532_at) / Fold change /veh JSRP1 (11732532_at) / RFU KRTAP10-11 (11738290_x_at) / Fold change /veh KRTAP10-11 (11738290_x_at) / RFU MYO3A (11730013_a_at) / Fold change /veh MYO3A (11730013_a_at) / RFU EBF3 (11725865_a_at) / Fold change /veh EBF3 (11725865_a_at) / RFU CAMK2N1 (11719241_x_at) / Fold change /veh CAMK2N1 (11719241_x_at) / RFU C5orf56 (11738088_a_at) / Fold change /veh C5orf56 (11738088_a_at) / RFU OLFML3 (11715873_a_at) / Fold change /veh OLFML3 (11715873_a_at) / RFU LOC100653217 /// NTM (11731650_a_at) / Fold change /veh LOC100653217 /// NTM (11731650_a_at) / RFU MAPK11 (11762145_a_at) / Fold change /veh MAPK11 (11762145_a_at) / RFU FIZ1 (11724087_x_at) / Fold change /veh FIZ1 (11724087_x_at) / RFU OASL (11726364_x_at) / Fold change /veh OASL (11726364_x_at) / RFU SOX15 (11748057_x_at) / Fold change /veh SOX15 (11748057_x_at) / RFU CD79A (11719716_a_at) / Fold change /veh CD79A (11719716_a_at) / RFU HIST1H1D (11736915_at) / Fold change /veh HIST1H1D (11736915_at) / RFU CASKIN2 (11723855_a_at) / Fold change /veh CASKIN2 (11723855_a_at) / RFU LOC730098 (11760151_x_at) / Fold change /veh LOC730098 (11760151_x_at) / RFU OR4N2 (11742367_at) / Fold change /veh OR4N2 (11742367_at) / RFU PRRT2 (11749266_a_at) / Fold change /veh PRRT2 (11749266_a_at) / RFU SNX32 (11753110_a_at) / Fold change /veh SNX32 (11753110_a_at) / RFU CDHR5 (11726645_a_at) / Fold change /veh CDHR5 (11726645_a_at) / RFU RCAN1 (11760418_a_at) / Fold change /veh RCAN1 (11760418_a_at) / RFU FAM167A (11723789_a_at) / Fold change /veh FAM167A (11723789_a_at) / RFU FAM26E (11764081_at) / Fold change /veh FAM26E (11764081_at) / RFU ISYNA1 (11749810_s_at) / Fold change /veh ISYNA1 (11749810_s_at) / RFU ACY1 (11761880_at) / Fold change /veh ACY1 (11761880_at) / RFU 11764098_at / Fold change /veh 11764098_at / RFU SAMD14 (11745864_x_at) / Fold change /veh SAMD14 (11745864_x_at) / RFU NPB (11741838_a_at) / Fold change /veh NPB (11741838_a_at) / RFU TMPRSS6 (11731388_a_at) / Fold change /veh TMPRSS6 (11731388_a_at) / RFU KRTAP10-2 (11738614_at) / Fold change /veh KRTAP10-2 (11738614_at) / RFU ARHGAP8 /// PRR5-ARHGAP8 (11727945_x_at) / Fold change /veh ARHGAP8 /// PRR5-ARHGAP8 (11727945_x_at) / RFU KRTAP5-7 /// NADSYN1 (11734609_at) / Fold change /veh KRTAP5-7 /// NADSYN1 (11734609_at) / RFU RASL12 (11751679_a_at) / Fold change /veh RASL12 (11751679_a_at) / RFU CDKN2B (11736163_a_at) / Fold change /veh CDKN2B (11736163_a_at) / RFU PRF1 (11729649_at) / Fold change /veh PRF1 (11729649_at) / RFU, ZNF638 /// ZNF638-IT1 / Fold change vs veh, ZNF638 /// ZNF638-IT1 / RFU, PANK3 / Fold change vs veh, PANK3 / RFU, SH3YL1 / Fold change vs veh, SH3YL1 / RFU, ZEB2 / Fold change vs veh, ZEB2 / RFU, NRIP1 / Fold change vs veh, NRIP1 / RFU, PTTG1IP / Fold change vs veh, PTTG1IP / RFU, CAPN2 / Fold change vs veh, CAPN2 / RFU, MED14 / Fold change vs veh, MED14 / RFU, SNORA58 / Fold change vs veh, SNORA58 / RFU, C1orf63 / Fold change vs veh, C1orf63 / RFU, LRRFIP1 / Fold change vs veh, LRRFIP1 / RFU, NDUFAF7 / Fold change vs veh, NDUFAF7 / RFU, SLC12A2 / Fold change vs veh, SLC12A2 / RFU, IBTK / Fold change vs veh, IBTK / RFU, ESF1 / Fold change vs veh, ESF1 / Fold change vs veh, TMEM50B / RFU, TAOK1 / Fold change vs veh, TAOK1 / RFU, ACBD3 / Fold change vs veh, ACBD3 / RFU, TMA16 / Fold change vs veh, TMA16 / RFU, RWDD3 / Fold change vs veh, RWDD3 / RFU, BCAT1 / Fold change vs veh, BCAT1 / RFU, EDEM3 / Fold change vs veh, EDEM3 / RFU, TMEM33 / Fold change vs veh, TMEM33 / RFU, WDR75 / Fold change vs veh, WDR75 / RFU, AHCTF1 / Fold change vs veh, AHCTF1 / RFU, TFRC / Fold change vs veh, TFRC / RFU, ZDHHC17 / Fold change vs veh, ZDHHC17 / RFU, NOM1 / Fold change vs veh, NOM1 / RFU, ARL8B / Fold change vs veh, ARL8B / RFU, ZBTB11 / Fold change vs veh, ZBTB11 / RFU, TAMM41 / Fold change vs veh, TAMM41 / RFU, KIAA1704 /// LOC100996395 / Fold change vs veh, KIAA1704 /// LOC100996395 / RFU, ING1 / Fold change vs veh, ING1 / RFU, TRMT61B / Fold change vs veh, TRMT61B / RFU, FUBP3 / Fold change vs veh, FUBP3 / RFU, TP53 / Fold change vs veh, TP53 / RFU, TNKS2 / Fold change vs veh, TNKS2 / RFU, ZFP14 / Fold change vs veh, ZFP14 / RFU, ACTR2 / Fold change vs veh, ACTR2 / RFU, PPP3R1 / Fold change vs veh, PPP3R1 / RFU, PIK3R1 / Fold change vs veh, PIK3R1 / RFU, HNRNPA1 / Fold change vs veh, HNRNPA1 / RFU, RNF170 / Fold change vs veh, RNF170 / RFU, ZNF28 / Fold change vs veh, ZNF28 / RFU, RNGTT / Fold change vs veh, RNGTT / RFU, OGT / Fold change vs veh, OGT / RFU, BRD1 / Fold change vs veh, BRD1 / RFU, MARS / Fold change vs veh, MARS / RFU, ZNF655 / Fold change vs veh, ZNF655 / RFU, FAHD1 / Fold change vs veh, FAHD1 / RFU, BDP1 / Fold change vs veh, BDP1 / RFU, LRRCC1 / Fold change vs veh, LRRCC1 / RFU, ARID1A / Fold change vs veh, ARID1A / RFU, ZNF146 / Fold change vs veh, ZNF146 / RFU, ZNF330 / Fold change vs veh, ZNF330 / RFU, GPN3 / Fold change vs veh, GPN3 / RFU, C9orf123 / Fold change vs veh, C9orf123 / RFU, N4BP2L2 / Fold change vs veh, N4BP2L2 / RFU, ARFIP1 / Fold change vs veh, ARFIP1 / RFU, FAM179B / Fold change vs veh, FAM179B / RFU, BCL10 / Fold change vs veh, BCL10 / RFU, UHRF1BP1L / Fold change vs veh, UHRF1BP1L / RFU, BET1 / Fold change vs veh, BET1 / RFU, CNOT2 / Fold change vs veh, CNOT2 / RFU, ZNF268 / Fold change vs veh, ZNF268 / Fold change vs veh, ZNF507 / RFU, DGCR2 / Fold change vs veh, DGCR2 / RFU, WDSUB1 / Fold change vs veh, WDSUB1 / Fold change vs veh, HSP90B1 /// MIR3652 / RFU, ADSS / Fold change vs veh, ADSS / RFU, GK / Fold change vs veh, GK / RFU, ZNF148 / Fold change vs veh, ZNF148 / RFU, TAF9 / Fold change vs veh, TAF9 / RFU, SLC1A5 / Fold change vs veh, SLC1A5 / RFU, SLMO2 / Fold change vs veh, SLMO2 / RFU, ABCC4 / Fold change vs veh, ABCC4 / RFU, LOC101060439 /// RAP1B / Fold change vs veh, LOC101060439 /// RAP1B / RFU, RFX7 / Fold change vs veh, RFX7 / RFU, GTPBP10 / Fold change vs veh, GTPBP10 / RFU, CNEP1R1 / Fold change vs veh, CNEP1R1 / RFU, BIVM-ERCC5 /// ERCC5 / Fold change vs veh, BIVM-ERCC5 /// ERCC5 / RFU, ILF3 / Fold change vs veh, ILF3 / RFU 11762660_at / Fold change /veh 11762660_at / RFU VCAN (11757783_s_at) / Fold change /veh VCAN (11757783_s_at) / RFU DDX43 (11728927_at) / Fold change /veh DDX43 (11728927_at) / RFU KRT8 (11758188_x_at) / Fold change /veh KRT8 (11758188_x_at) / RFU NKD1 (11759106_at) / Fold change /veh NKD1 (11759106_at) / RFU SRD5A1 (11742802_a_at) / Fold change /veh SRD5A1 (11742802_a_at) / RFU TPSAB1 /// TPSB2 (11721975_s_at) / Fold change /veh TPSAB1 /// TPSB2 (11721975_s_at) / RFU GSTM3 (11746129_a_at) / Fold change /veh GSTM3 (11746129_a_at) / RFU IL23R (11737362_x_at) / Fold change /veh IL23R (11737362_x_at) / RFU TMEM51 (11727254_a_at) / Fold change /veh TMEM51 (11727254_a_at) / RFU PIWIL2 (11732686_x_at) / Fold change /veh PIWIL2 (11732686_x_at) / RFU ORM1 (11744905_x_at) / Fold change /veh ORM1 (11744905_x_at) / RFU CCDC152 (11743942_at) / Fold change /veh CCDC152 (11743942_at) / RFU ECM1 (11717891_a_at) / Fold change /veh ECM1 (11717891_a_at) / RFU IL23R (11748794_a_at) / Fold change /veh IL23R (11748794_a_at) / RFU TNFAIP8L3 (11732012_x_at) / Fold change /veh TNFAIP8L3 (11732012_x_at) / RFU MBOAT4 (11741988_at) / Fold change /veh MBOAT4 (11741988_at) / RFU 11764193_at / Fold change /veh 11764193_at / RFU TMEM53 (11763286_at) / Fold change /veh TMEM53 (11763286_at) / RFU MAGEB2 (11727129_at) / Fold change /veh MAGEB2 (11727129_at) / RFU TMEM200A (11744735_a_at) / Fold change /veh TMEM200A (11744735_a_at) / RFU CCDC152 (11751479_a_at) / Fold change /veh CCDC152 (11751479_a_at) / RFU FAM211A (11726209_a_at) / Fold change /veh FAM211A (11726209_a_at) / RFU RGS16 (11746705_a_at) / Fold change /veh RGS16 (11746705_a_at) / RFU VCAN (11755009_s_at) / Fold change /veh VCAN (11755009_s_at) / RFU RHOB (11743442_s_at) / Fold change /veh RHOB (11743442_s_at) / RFU RGS16 (11720943_a_at) / Fold change /veh RGS16 (11720943_a_at) / RFU RGS16 (11720944_at) / Fold change /veh RGS16 (11720944_at) / RFU, VPS4B / Fold change vs veh, VPS4B / RFU, CREB1 / Fold change vs veh, CREB1 / RFU, DNAJC13 / Fold change vs veh, DNAJC13 / RFU, GNAQ / Fold change vs veh, GNAQ / RFU, CDK5R1 / Fold change vs veh, CDK5R1 / RFU, ZRANB3 / Fold change vs veh, ZRANB3 / RFU, CUL4A / Fold change vs veh, CUL4A / RFU, CCNY / Fold change vs veh, CCNY / RFU, UFL1 / Fold change vs veh, UFL1 / RFU, COG3 / Fold change vs veh, COG3 / RFU, DIAPH2 / Fold change vs veh, DIAPH2 / RFU, SKA2 / Fold change vs veh, SKA2 / RFU, AFF3 / Fold change vs veh, AFF3 / RFU, LMF1 / Fold change vs veh, LMF1 / RFU, IPO11 / Fold change vs veh, IPO11 / RFU, DFFB / Fold change vs veh, DFFB / RFU, FOXP1 / Fold change vs veh, FOXP1 / RFU, CARD8 / Fold change vs veh, CARD8 / RFU, STRN3 / Fold change vs veh, STRN3 / RFU, ADK / Fold change vs veh, ADK / RFU, RASSF2 / Fold change vs veh, RASSF2 / RFU, WIPF1 / Fold change vs veh, WIPF1 / RFU, LARP1B / Fold change vs veh, LARP1B / RFU, RASA1 / Fold change vs veh, RASA1 / RFU, RB1 / Fold change vs veh, RB1 / RFU, PPFIA1 / Fold change vs veh, PPFIA1 / RFU, MAT2A / Fold change vs veh, MAT2A / RFU, CCT5 / Fold change vs veh, CCT5 / RFU, WDR92 / Fold change vs veh, WDR92 / RFU, CUX1 / Fold change vs veh, CUX1 / RFU, TTC7A / Fold change vs veh, TTC7A / RFU, TMEM135 / Fold change vs veh, TMEM135 / RFU, DEPTOR / Fold change vs veh, DEPTOR / RFU, CPM / Fold change vs veh, CPM / RFU, DNAJB6 / Fold change vs veh, DNAJB6 / RFU, CACNA2D3 / Fold change vs veh, CACNA2D3 / RFU, DTX4 / Fold change vs veh, DTX4 / RFU, TFCP2 / Fold change vs veh, TFCP2 / RFU, GMCL1 /// GMCL1P1 / Fold change vs veh, GMCL1 /// GMCL1P1 / RFU, AEBP2 / Fold change vs veh, AEBP2 / RFU, SNHG1 /// SNORD22 /// SNORD25 /// SNORD26 /// SNORD27 /// SNORD28 /// SNORD29 /// SNORD31 / Fold change vs veh, SNHG1 /// SNORD22 /// SNORD25 /// SNORD26 /// SNORD27 /// SNORD28 /// SNORD29 /// SNORD31 / Fold change (Aza/veh), C12orf56 (ProbeSet 11735607_a_at) / Fold change (ACY-1035/veh), C12orf56 (ProbeSet 11735607_a_at) / Fold change (Aza/veh), FGFR1OP (ProbeSet 11751329_s_at) / Fold change (ACY-1035/veh), FGFR1OP (ProbeSet 11751329_s_at) / Fold change (Aza/veh), VPS36 (ProbeSet 11739960_a_at) / Fold change (ACY-1035/veh), VPS36 (ProbeSet 11739960_a_at) / RFU SYPL1 (11715823_x_at) / Fold change /veh SYPL1 (11715823_x_at) / RFU IGFBP7 (11715501_s_at) / Fold change /veh IGFBP7 (11715501_s_at) / RFU REEP3 (11722064_at) / Fold change /veh REEP3 (11722064_at) / RFU IGLL1 (11728026_x_at) / Fold change /veh IGLL1 (11728026_x_at): dose or concentration left out as unconfirmed
Conditions: MV-4-11 cells, 48 hours

## Nc1ccc(-c2cccs2)cc1NC(=O)c1ccc2c(c1)cc(C1CC1)n2CCN1CCOCC1 [ACY-1035]
  Fold change /veh FIZ1 (11724087_x_at): 1.06
